ChEMBL document CHEMBL1201862, “PubChem BioAssay data set” (2004)
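In this assay, cells in 96-well plates receive the compound at five concentrations for 48 hours. Endpoints are linearly interpolated between the surrounding concentrations. Abbreviation: GI50, concentration required for 50% inhibition of growth.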 The source made the active and inactive calls. Rule as the data show it: active = GI50 up to about 1.1 µM and inactive = higher.

What was measured:
Test in all cases: NCI anticancer screen, dose series, 48 h
786-0 = tested on: 786-0
A498 = tested on: A498
ACHN = tested on: ACHN
COLO 205 = tested on: COLO 205
EKVX = tested on: EKVX
HT-29 = tested on: HT-29
K562 = tested on: K562
MOLT-4 = tested on: MOLT-4
Malme-3M = tested on: Malme-3M
NCI-H226 = tested on: NCI-H226
OVCAR-3 = tested on: OVCAR-3
SK-OV-3 = tested on: SK-OV-3
U-251 = tested on: U-251
UACC-257 = tested on: UACC-257
UACC-62 = tested on: UACC-62
UO-31 = tested on: UO-31
HOP-62 = tested on: HOP-62
NCI-H460 = tested on: NCI-H460
OVCAR-5 = tested on: OVCAR-5

Measured: GI50

O=C(Nc1cccc(O)c1)C(=O)C1C(=O)NC(=S)NC1=O
inactive: 786-0 > 100 µM | A498 > 100 µM | ACHN > 100 µM | COLO 205 > 100 µM | EKVX > 100 µM | HT-29 > 100 µM | K562 > 100 µM | MOLT-4 > 100 µM | Malme-3M > 100 µM | NCI-H226 > 100 µM | OVCAR-3 > 100 µM | SK-OV-3 > 100 µM | U-251 > 100 µM | UACC-257 > 100 µM | UACC-62 > 100 µM | UO-31 > 100 µM

COC(=O)C(C/C=C(\C)c1ccccc1)C(C)=O (centres undefined)
inactive: A498 > 100 µM | COLO 205 > 81.8 µM | EKVX > 100 µM | HOP-62 > 100 µM | HT-29 83.9 µM | K562 44.9 µM | MOLT-4 16.4 µM | Malme-3M > 100 µM | NCI-H226 > 72.6 µM | NCI-H460 85.3 µM | OVCAR-3 50.6 µM | OVCAR-5 > 100 µM | SK-OV-3 > 100 µM | U-251 57.5 µM | UACC-257 > 48.3 µM | UACC-62 > 63.4 µM | UO-31 33.2 µM

CCCCCCCCOCC(O)COC(=O)CCCCCCC (centres undefined)
inactive: 786-0 > 100 µM | A498 > 100 µM | ACHN > 100 µM | COLO 205 79.3 µM | HOP-62 > 100 µM | HT-29 > 100 µM | K562 31.2 µM | MOLT-4 32.7 µM | Malme-3M > 100 µM | NCI-H226 > 100 µM | NCI-H460 > 100 µM | OVCAR-3 18.3 µM | OVCAR-5 > 100 µM | SK-OV-3 > 100 µM | U-251 > 100 µM | UACC-257 51.3 µM | UACC-62 50.8 µM | UO-31 > 100 µM

COc1cccc(-c2nc3c(C(=O)NCCN(C)C)cccc3[nH]2)c1
inactive: A498 16.3 µM | COLO 205 10 µM | EKVX 34.4 µM | HOP-62 15.1 µM | HT-29 11 µM | K562 15.1 µM | MOLT-4 3.38 µM | Malme-3M 14 µM | NCI-H226 14 µM | NCI-H460 11.1 µM | OVCAR-3 22.7 µM | OVCAR-5 19.1 µM | SK-OV-3 21.3 µM | U-251 23.8 µM | UACC-257 16.1 µM | UACC-62 16.7 µM | UO-31 11.2 µM

CCOC(=O)/C(=C/c1ccco1)P(=O)(OCC)OCC
inactive: 786-0 > 100 µM | A498 > 100 µM | ACHN > 100 µM | COLO 205 > 100 µM | EKVX > 100 µM | HT-29 > 100 µM | K562 > 100 µM | MOLT-4 > 100 µM | Malme-3M > 100 µM | NCI-H226 > 100 µM | NCI-H460 > 100 µM | OVCAR-5 > 100 µM | SK-OV-3 > 100 µM | U-251 > 100 µM | UACC-257 > 100 µM | UACC-62 > 100 µM | UO-31 > 100 µM

O=C(c1ccccc1O)c1cc(-c2ncc3c(=O)c4ccccc4oc3n2)c(-c2ccccc2O)[nH]c1=O
inactive: A498 21.3 µM | COLO 205 31.9 µM | EKVX 36.5 µM | HOP-62 18.5 µM | HT-29 28.2 µM | K562 19.7 µM | MOLT-4 18.1 µM | Malme-3M 30 µM | NCI-H226 15 µM | NCI-H460 23.3 µM | OVCAR-3 24 µM | OVCAR-5 24 µM | SK-OV-3 25.9 µM | UACC-257 18.9 µM | UACC-62 22.9 µM | UO-31 14.9 µM

Cc1nc2c(n1-c1ccccc1)C(=O)c1ccccc1C2=O
inactive: 786-0 76.7 µM | A498 > 100 µM | ACHN 56.9 µM | EKVX > 100 µM | HOP-62 > 100 µM | HT-29 32.7 µM | K562 32.2 µM | MOLT-4 30.3 µM | Malme-3M 11.3 µM | NCI-H226 58.1 µM | NCI-H460 39.3 µM | OVCAR-3 20.7 µM | OVCAR-5 > 100 µM | SK-OV-3 > 100 µM | U-251 34 µM | UACC-257 22.4 µM | UACC-62 23.4 µM | UO-31 73.3 µM

COC(=O)CC(=O)OSc1ccccc1
inactive: A498 17.3 µM | ACHN 18.2 µM | COLO 205 19.5 µM | EKVX 17.6 µM | HOP-62 22.4 µM | K562 35.2 µM | MOLT-4 4.63 µM | Malme-3M 42.4 µM | NCI-H226 24.6 µM | NCI-H460 38.5 µM | OVCAR-3 14.6 µM | OVCAR-5 45 µM | SK-OV-3 21.1 µM | U-251 3.48 µM | UACC-257 25.4 µM | UACC-62 14.9 µM | UO-31 12.2 µM

Oc1cc(-c2ccc(Oc3ccccc3)cc2)nc2cc3c(cc12)OCO3
inactive: 786-0 > 100 µM | A498 > 100 µM | ACHN > 100 µM | COLO 205 > 100 µM | EKVX > 100 µM | HOP-62 > 100 µM | HT-29 > 100 µM | K562 > 100 µM | MOLT-4 > 100 µM | Malme-3M > 100 µM | NCI-H226 27.5 µM | NCI-H460 > 100 µM | OVCAR-3 > 100 µM | U-251 > 100 µM | UACC-257 > 100 µM | UACC-62 > 100 µM | UO-31 > 100 µM

COC(=O)[C@]1(c2ccc(N(C)C)cc2OC)C[C@@H]2CCCN(CCc3c1[nH]c1ccccc31)C2
inactive: A498 19 µM | COLO 205 13.8 µM | EKVX 22.3 µM | HOP-62 30.3 µM | HT-29 15 µM | K562 17.3 µM | MOLT-4 31 µM | Malme-3M 15.9 µM | NCI-H226 17.4 µM | NCI-H460 16.7 µM | OVCAR-3 18.5 µM | OVCAR-5 > 60.4 µM | SK-OV-3 > 47 µM | U-251 19.1 µM | UACC-257 21 µM | UACC-62 18 µM | UO-31 15.5 µM

O=C(c1ccco1)c1ccccc1C(=O)c1ccco1
inactive: 786-0 > 100 µM | A498 > 100 µM | ACHN > 100 µM | COLO 205 > 100 µM | EKVX > 100 µM | HOP-62 > 100 µM | HT-29 > 100 µM | K562 > 100 µM | MOLT-4 > 100 µM | Malme-3M > 100 µM | NCI-H226 > 100 µM | NCI-H460 > 100 µM | OVCAR-3 > 100 µM | OVCAR-5 > 100 µM | U-251 > 100 µM | UACC-257 > 100 µM | UACC-62 > 100 µM | UO-31 > 100 µM

CC(=O)c1ccc(NC(=O)/C(=N\NC(N)=O)C(C#N)CC(C)(C)C=O)cc1 (centres undefined)
inactive: A498 > 100 µM | ACHN > 100 µM | COLO 205 > 100 µM | EKVX > 100 µM | HOP-62 > 100 µM | HT-29 > 100 µM | K562 > 100 µM | MOLT-4 > 100 µM | NCI-H226 > 100 µM | NCI-H460 > 100 µM | OVCAR-5 > 100 µM | SK-OV-3 > 100 µM | U-251 > 100 µM | UACC-257 > 100 µM | UACC-62 > 100 µM | UO-31 > 100 µM
